Here are results for 18 molecules from US9708336B2, “Metallo-beta-lactamase inhibitors” (priority 2014, dated 2017).

One test deals with NDM-1 (Klebsiella pneumoniae, UniProt C7C422). Put plainly: biochemical. In kind it is biochemical. As to conditions: NDM-1 enzyme, CCF2-FA fluorescence assay; read-out: NDM-1 IC50.
The next test has as its target IMP-1 (Serratia marcescens, UniProt P52699). Put plainly: biochemical. In kind it is biochemical. As to conditions: IMP-1 enzyme, CCF2-FA fluorescence assay; read-out: IMP-1 IC50.
For the next test, the target named is VIM-1 (Pseudomonas aeruginosa (strain ATCC 15692 / DSM 22644 / CIP 104116 / JCM 14847 / LMG 12228 / 1C / PRS 101 / PAO1), UniProt A0A0F7KYQ8). The test is described as follows: Enzyme activity: determination of IC50, fluorescence assay with CCF2-FA substrate (VIM-1). The format is biochemical. The settings on record: CCF2-FA fluorescence assay.
Test [1] concerns Escherichia coli expressing NDM-1 (CLB30005). Put plainly: Antibiotic potentiation activity: synergistic concentration (MITC95) with imipenem, OD600 growth. The format is cell-based. The settings on record: Escherichia coli expressing NDM-1 (CLB30005), 95% growth inhibition. In short, it runs like this: (§1)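 CLB30005 was precultured on Mueller Hinton agar with 8 ug/ml imipenem, the other strains on trypticase soy agar with 5% sheep blood, overnight at 35 °C. Saline suspensions diluted 1:100 in 1.1× CAMHB received compound and 4 μg/ml imipenem, then 22–24 h at 35 °C before absorbance reading.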

Test [2] has as its system Klebsiella pneumoniae expressing VIM-1 (IHMA599644). The description is as above. In kind it is cell-based. The settings on record: Klebsiella pneumoniae expressing VIM-1 (IHMA599644), 95% growth inhibition. In short, it runs like this: as §1
Test [3] deals with Serratia marcescens expressing IMP-1 (CL5741). The description is as above. In kind it is cell-based. As to conditions: Serratia marcescens expressing IMP-1 (CL5741), 95% growth inhibition. In short, it runs like this:
as §1

Setting [4] is: VIM-1 enzyme, read-out: VIM-1 IC50.

Where two headings read alike, the source gives them in different places.

Chain of NDM-1 (C7C422 whole entry, looked up, species assumed): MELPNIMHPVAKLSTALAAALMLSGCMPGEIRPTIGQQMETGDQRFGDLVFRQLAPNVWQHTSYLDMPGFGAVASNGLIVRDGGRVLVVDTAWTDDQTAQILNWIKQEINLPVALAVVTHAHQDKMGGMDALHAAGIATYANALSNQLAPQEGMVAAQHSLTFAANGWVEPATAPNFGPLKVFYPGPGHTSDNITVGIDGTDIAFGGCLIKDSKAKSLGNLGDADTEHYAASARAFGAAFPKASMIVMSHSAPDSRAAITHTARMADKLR
Chain of IMP-1 (P52699 whole entry, looked up): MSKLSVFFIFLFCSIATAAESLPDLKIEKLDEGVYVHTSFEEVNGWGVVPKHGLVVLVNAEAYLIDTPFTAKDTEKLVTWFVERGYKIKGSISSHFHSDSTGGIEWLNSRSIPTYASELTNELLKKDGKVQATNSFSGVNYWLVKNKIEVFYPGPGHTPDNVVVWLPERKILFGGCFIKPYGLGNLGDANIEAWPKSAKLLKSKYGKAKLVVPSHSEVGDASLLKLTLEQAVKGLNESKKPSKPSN

What is called IC50 is the concentration at which inhibition is half-maximal. Consider `NCc1nc(-c2ccc(-c3cccc(S(N)(=O)=O)c3-c3nn[nH]n3)cc2)no1` [Example 249, 4′-(5-(Aminomethyl)-1,2,4-oxadiazol-3-yl)-2-(2H-tetrazol-5-yl)-[1,1′-biphenyl]-3-sulfonamide], for which the figures for the IC50 at NDM-1, on IMP-1 and on VIM-1 (setting [4]) were 7.55 nM, 104 nM and 87 nM, respectively. Moreover, the “Escherichia coli MITC95” value in test [1] stood at 0.7813 µM. In test [2], the “Klebsiella pneumoniae MITC95” value stood at 50 µM. Moreover, the “Serratia marcescens MITC95” value in test [3] is 3.125 µM.

`NS(=O)(=O)c1cccc(-c2ccc(-c3noc(C4CCNC4)n3)cc2)c1-c1nn[nH]n1` (stereo not drawn) [Example 250, 4′-(5-(pyrrolidin-3-yl)-1,2,4-oxadiazol-3-yl)-2-(2H-tetrazol-5-yl)-[1,1′-biphenyl]-3-sulfonamide]: the IC50 is 18 nM on NDM-1, 109 nM at IMP-1 and 195 nM at VIM-1 (setting [4]). In addition, the “Escherichia coli MITC95” value in test [1] was found to be 0.7813 µM. For the same molecule, in test [2], the “Klebsiella pneumoniae MITC95” value worked out at 100 µM. For the same molecule, the “Serratia marcescens MITC95” value in test [3] is 4.688 µM.

For the molecule `C[C@H](O)c1nc(-c2ccc(-c3cccc(S(N)(=O)=O)c3-c3nn[nH]n3)cc2)no1` [Example 251, (S)-4′-(5-(1-hydroxyethyl)-1,2,4-oxadiazol-3-yl)-2-(2H-tetrazol-5-yl)-[1,1′-biphenyl]-3-sulfonamide], the IC50 at NDM-1 turned out to be 5.85 nM; on IMP-1, 42.5 nM; at VIM-1 (VIM-1 IC50, VIM-1 enzyme), 71.6 nM. The “Escherichia coli MITC95” value in test [1] worked out at 0.7813 µM. Also, in test [2], the “Klebsiella pneumoniae MITC95” value came out at 200 µM. In test [3], the “Serratia marcescens MITC95” value worked out at 6.25 µM.

`COc1ccc(S(N)(=O)=O)c(-c2nn[nH]n2)c1` [Example 253, 4-Methoxy-2-(2H-tetrazol-5-yl)benzenesulfonamide]: the values for the IC50 on NDM-1, at IMP-1 and at VIM-1 (setting [4]) were 440 nM, 46300 nM and 170000 nM, respectively. The “Escherichia coli MITC95” value in test [1] stood at 3.125 µM. Also, in test [2], the “Klebsiella pneumoniae MITC95” value is over 200 µM. The “Serratia marcescens MITC95” value in test [3] is over 200 µM.

For the molecule `NS(=O)(=O)c1cccc(C(F)(F)F)c1-c1nnn[nH]1` [Example 256, 2-(1H-Tetrazol-5-yl)-3-(trifluoromethyl)benzenesulfonamide], the IC50 was 230 nM at NDM-1, 6260 nM at IMP-1 and 8440 nM at VIM-1 (setting [4]). Also, the “Escherichia coli MITC95” value in test [1] turned out to be 0.7813 µM. In addition, the “Klebsiella pneumoniae MITC95” value in test [2] is over 200 µM. Also, the “Serratia marcescens MITC95” value in test [3] turned out to be 100 µM.

For `COc1cccc(S(N)(=O)=O)c1-c1nnn[nH]1` [Example 257, 3-Methoxy-2-(1H-tetrazol-5-yl)benzenesulfonamide], the results for the IC50 at NDM-1, on IMP-1 and at VIM-1 (setting [4]) were 547 nM, 8280 nM and 9230 nM, respectively. Also, the “Escherichia coli MITC95” value in test [1] worked out at 1.563 µM. In addition, the “Klebsiella pneumoniae MITC95” value in test [2] is over 200 µM. Further, in test [3], the “Serratia marcescens MITC95” value was 150 µM.

On to `NS(=O)(=O)c1cccc(-c2ccc(CO)nc2)c1-c1nnn[nH]1` [Example 258, 3-(6-(Hydroxymethyl)pyridin-3-yl)-2-(1H-tetrazol-5-yl)benzenesulfonamide], for which the values for the IC50 at NDM-1, at IMP-1 and on VIM-1 (setting [4]) were 12.9 nM, 888 nM and 147 nM, respectively. Further, the “Escherichia coli MITC95” value in test [1] worked out at 1.302 µM. Moreover, the “Klebsiella pneumoniae MITC95” value in test [2] stood at 15.63 µM. In addition, the “Serratia marcescens MITC95” value in test [3] came to 37.5 µM.

As for `NS(=O)(=O)c1c(Br)ccc(-c2ccc(C3CCNCC3)cc2)c1-c1nnn[nH]1` [Example 259, 4-Bromo-4′-(piperidin-4-yl)-2-(1H-tetrazol-5-yl)-[1,1′-biphenyl]-3-sulfonamide], the IC50 was found to be 11 nM on NDM-1, 10.1 nM on IMP-1 and 3.1 nM on VIM-1 (setting [4]). Further, the “Escherichia coli MITC95” value in test [1] was found to be 1.584 µM. The “Klebsiella pneumoniae MITC95” value in test [2] stood at 3.125 µM. Besides, the “Serratia marcescens MITC95” value in test [3] came out at 1 µM.

Take `CCCc1ccc(-c2ccc(C3CCNCC3)cc2)c(-c2nnn[nH]2)c1S(N)(=O)=O` [Example 260, 4′-(Piperidin-4-yl)-4-propyl-2-(1H-tetrazol-5-yl)-[1,1′-biphenyl]-3-sulfonamide]: the 50% inhibitory concentration (IC50) worked out at 11.2 nM at NDM-1, 6.72 nM at IMP-1 and 0.797 nM on VIM-1 (setting [4]). For the same molecule, in test [1], the “Escherichia coli MITC95” value stood at 6.25 µM. Further, the “Klebsiella pneumoniae MITC95” value in test [2] turned out to be 6.25 µM. In test [3], the “Serratia marcescens MITC95” value was 1.563 µM.

For the molecule `NS(=O)(=O)c1nncc(-c2ccc(Br)cc2)c1-c1nn[nH]n1` [Example 277, 5-(4-Bromophenyl)-4-(2H-tetrazol-5-yl)pyridazine-3-sulfonamide], the values for the IC50 on NDM-1, at IMP-1 and at VIM-1 (setting [4]) were 296 nM, 5270 nM and 1230 nM, respectively. Moreover, in test [1], the “Escherichia coli MITC95” value was 12.5 µM. Besides, the “Klebsiella pneumoniae MITC95” value in test [2] was over 200 µM. For the same molecule, the “Serratia marcescens MITC95” value in test [3] is 125 µM.

As for `CS(=O)(=O)c1nc2cc(Cl)c(-c3cccc(S(N)(=O)=O)c3-c3nn[nH]n3)cc2[nH]1` [Example 278, 3-(5-chloro-2-(methylsulfonyl)-1H-benzo[d]imidazol-6-yl)-2-(2H-tetrazol-5-yl)benzenesulfonamide], the IC50 came out at 8.5 nM at NDM-1, 536 nM at IMP-1 and 79.1 nM at VIM-1 (setting [4]). The “Escherichia coli MITC95” value in test [1] was 3.125 µM. Moreover, the “Klebsiella pneumoniae MITC95” value in test [2] came out at 100 µM. In test [3], the “Serratia marcescens MITC95” value is 37.5 µM.

As for `COc1nc2cc(Cl)c(-c3cccc(S(N)(=O)=O)c3-c3nn[nH]n3)cc2[nH]1` [Example 279, 3-(5-chloro-2-methoxy-1H-benzo[d]imidazol-6-yl)-2-(2H-tetrazol-5-yl)benzenesulfonamide], the IC50 is 32.3 nM on NDM-1; 2170 nM on IMP-1; 183 nM on VIM-1 (VIM-1 IC50, VIM-1 enzyme). Besides, the “Escherichia coli MITC95” value in test [1] was 0.5859 µM. For the same molecule, in test [2], the “Klebsiella pneumoniae MITC95” value stood at 75 µM. In test [3], the “Serratia marcescens MITC95” value stood at 25 µM.

In the case of `NS(=O)(=O)c1cc(Cl)cc(-c2ccc3c(c2)C(=O)NC3)c1-c1nn[nH]n1` [Example 289, 5-Chloro-3-(3-oxo-2,3-dihydro-1H-isoindol-5-yl)-2-(2H-tetrazol-5-yl)benzenesulfonamide], the IC50 at NDM-1 was determined as 13.5 nM; on IMP-1, 121 nM; on VIM-1 (setting [4]), 452 nM. The “Escherichia coli MITC95” value in test [1] was found to be 3.125 µM. Besides, the “Klebsiella pneumoniae MITC95” value in test [2] was over 200 µM. Further, the “Serratia marcescens MITC95” value in test [3] is 31.25 µM.

`Cc1ccc(-c2cc(-c3ccc4c(c3)CNC4=O)cc(S(N)(=O)=O)c2-c2nn[nH]n2)cc1` [Example 290, 4′-Methyl-5-(1-oxoisoindolin-5-yl)-2-(2H-tetrazol-5-yl)-[1,1′-biphenyl]-3-sulfonamide]: the IC50 was determined as 0.637 nM at NDM-1, 19.7 nM on IMP-1 and 34.3 nM at VIM-1 (setting [4]). Moreover, the “Escherichia coli MITC95” value in test [1] amounted to 3.516 µM. In test [2], the “Klebsiella pneumoniae MITC95” value was over 200 µM. For the same molecule, the “Serratia marcescens MITC95” value in test [3] stood at 19.53 µM.

`Cc1ccc(-c2cc(-c3cnn(C)c3)cc(S(N)(=O)=O)c2-c2nn[nH]n2)cc1` [Example 291, 4′-methyl-5-(1-methyl-1H-pyrazol-4-yl)-2-(2H-tetrazol-5-yl)-[1,1′-biphenyl]-3-sulfonamide]: the IC50 at NDM-1 was found to be 1.47 nM; on IMP-1 it was 98.6 nM; on VIM-1 (setting [4]), 222 nM. In addition, in test [1], the “Escherichia coli MITC95” value is 3.906 µM. In test [2], the “Klebsiella pneumoniae MITC95” value was over 200 µM. Further, the “Serratia marcescens MITC95” value in test [3] was 4.688 µM.

Consider `Cc1ccc(-c2cc(-c3ccc(O)nc3)cc(S(N)(=O)=O)c2-c2nn[nH]n2)cc1` [Example 292, 5-(6-hydroxypyridin-3-yl)-4′-methyl-2-(2H-tetrazol-5-yl)-[1,1′-biphenyl]-3-sulfonamide], for which the half-maximal inhibitory concentration (IC50) was 3.65 nM at NDM-1, 416 nM at IMP-1 and 193 nM at VIM-1 (setting [4]). In addition, the “Escherichia coli MITC95” value in test [1] came to 3.516 µM. In addition, in test [2], the “Klebsiella pneumoniae MITC95” value was over 200 µM. The “Serratia marcescens MITC95” value in test [3] worked out at 18.75 µM.

For the molecule `Cc1ccc(-c2cc(-c3cccnc3)cc(S(N)(=O)=O)c2-c2nn[nH]n2)cc1` [Example 293, 4′-methyl-5-(pyridin-3-yl)-2-(2H-tetrazol-5-yl)-[1,1′-biphenyl]-3-sulfonamide], the IC50 on NDM-1 was 1.02 nM; at IMP-1 it was 86.5 nM; on VIM-1 (setting [4]), 232 nM. In addition, in test [1], the “Escherichia coli MITC95” value amounted to 1.953 µM. Besides, the “Klebsiella pneumoniae MITC95” value in test [2] is over 200 µM. For the same molecule, in test [3], the “Serratia marcescens MITC95” value was 9.375 µM.

With `Cc1ccc(-c2cc(-c3ccc4c(c3)CNC4)cc(S(N)(=O)=O)c2-c2nn[nH]n2)cc1` [Example 294, 5-(isoindolin-5-yl)-4′-methyl-2-(2H-tetrazol-5-yl)-[1,1′-biphenyl]-3-sulfonamide], the IC50 on NDM-1 turned out to be 0.637 nM; at IMP-1 it was 29.4 nM; against VIM-1 (VIM-1 IC50, VIM-1 enzyme), 193 nM. In test [1], the “Escherichia coli MITC95” value is 0.3802 µM. Also, the “Klebsiella pneumoniae MITC95” value in test [2] amounted to 37.5 µM. Besides, the “Serratia marcescens MITC95” value in test [3] was found to be 0.6406 µM.
